In the supplement of paper PMC10307832:

Tests used:
Assay in all cases: relative viability (nuclei count vs DMSO), 5 days (fraction); higher = more cells survive
[1] = compound: CN(C)CC1=CC(=CC=C1)N=C(C2=CC=CC=C2)C3=C(NC4=C3C=CC(=C4)C(=O)N(C)C)O + CC(=O)c1c(C)c2cnc(Nc3ccc(N4CCNCC4)cn3)nc2n(C2CCCC2)c1=O [Palbociclib] (partner 0.5 µM)
In short: (§1)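 A single step with final 0.05% Triton X-100, 1% formaldehyde and 1 ug/ml Hoechst fixed the cells and stained nuclei 5 days after treatment. Lung cancer cell lines in 1536-well plates had been treated by pin tool the day after seeding with one drug alone or a fixed anchor-drug dose plus five library-drug doses (not always all listed) in √10 steps, and nuclei were counted on 4× images. Relative viability is the ratio of nuclei in treated wells to nuclei in vehicle wells, taken as the median of duplicate plates.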

[2] = compound: CN(C)CC1=CC(=CC=C1)N=C(C2=CC=CC=C2)C3=C(NC4=C3C=CC(=C4)C(=O)N(C)C)O + CS(=O)(=O)N1CCN(Cc2cc3nc(-c4cccc5[nH]ncc45)nc(N4CCOCC4)c3s2)CC1 [Pictilisib] (partner 1 µM)
In short: as §1

[3] = compound: CN(C)CC1=CC(=CC=C1)N=C(C2=CC=CC=C2)C3=C(NC4=C3C=CC(=C4)C(=O)N(C)C)O + N=C(N)NC(=N)NCCc1ccccc1 [Phenformin] (partner 250 µM)
In short: as §1

[4] = compound: CN(C)CC1=CC(=CC=C1)N=C(C2=CC=CC=C2)C3=C(NC4=C3C=CC(=C4)C(=O)N(C)C)O + Nc1ncn([C@H]2C[C@H](O)[C@@H](CO)O2)c(=O)n1 [Decitabine] (partner 2 µM)
In short: as §1

Cell Line	relative viability ([1]; first compound 0.08 µM)	relative viability ([1]; first compound 0.253 µM)	relative viability ([1]; first compound 0.8 µM)	relative viability ([1]; first compound 2.53 µM)	relative viability ([1]; first compound 8 µM)	relative viability ([2]; first compound 0.08 µM)	relative viability ([2]; first compound 0.253 µM)	relative viability ([2]; first compound 0.8 µM)	relative viability ([2]; first compound 2.53 µM)	relative viability ([2]; first compound 8 µM)	relative viability ([3]; first compound 0.08 µM)	relative viability ([3]; first compound 0.253 µM)	relative viability ([3]; first compound 0.8 µM)	relative viability ([3]; first compound 2.53 µM)	relative viability ([3]; first compound 8 µM)	relative viability ([4]; first compound 0.08 µM)	relative viability ([4]; first compound 0.253 µM)	relative viability ([4]; first compound 0.8 µM)	relative viability ([4]; first compound 2.53 µM)	relative viability ([4]; first compound 8 µM)
HARA	0.242	0.223	0.247	0.302	0.236	0.401	0.472	0.405	0.466	0.412	0.413	0.454	0.384	0.412	0.373	0.452	0.595	0.537	0.554	0.443
H3255	0.304	0.331	0.336	0.334	0.343	0.548	0.493	0.386	0.455	0.475	0.44	0.356	0.338	0.392	0.371	0.599	0.605	–	0.586	0.593
SK-LU-1	0.335	0.363	0.34	0.362	0.369	0.575	0.548	0.566	0.538	0.477	0.41	0.573	0.597	0.473	0.39	0.624	0.653	0.646	0.578	0.677
NCI-H1793	0.27	0.363	0.326	0.329	0.351	0.355	0.266	0.32	0.35	0.345	0.405	0.394	–	0.324	0.284	0.53	0.509	0.52	0.49	0.644
EMC-BAC-2	0.561	0.533	0.511	0.494	0.542	0.545	0.528	0.552	0.572	0.569	0.496	0.506	0.504	0.478	0.55	1.15	0.996	0.992	0.817	1.01
NCI-H2405	0.545	0.562	0.513	0.467	0.478	0.457	0.357	0.441	0.385	0.382	0.358	0.387	0.378	0.347	0.249	0.78	0.77	0.758	0.67	0.696
EPLC-272H	0.309	0.35	0.269	0.357	0.301	0.301	0.331	0.323	0.347	0.457	0.323	0.283	0.226	0.302	0.347	0.39	0.422	0.297	0.471	0.383
LXF-289	0.603	0.544	0.606	0.547	0.568	0.778	0.793	0.794	0.706	0.731	0.499	0.489	0.518	0.518	0.473	0.343	0.368	0.366	0.384	0.374
NCI-H1299	–	–	–	–	–	0.509	0.854	0.849	0.6	0.355	–	–	–	–	–	–	–	–	–	–
NCI-H1395	0.617	0.612	0.698	0.544	0.602	0.649	0.619	0.651	0.489	0.579	0.377	0.488	0.465	0.417	0.417	0.752	0.757	0.759	0.727	0.758
NCI-H596	–	–	–	–	–	0.383	0.432	0.384	0.374	0.429	0.693	0.625	0.769	0.806	0.742	0.919	1.05	0.967	1.03	0.979
201T	0.331	0.346	0.341	0.384	0.352	0.674	0.709	0.681	0.662	0.675	0.437	0.449	0.416	0.428	0.41	0.836	0.874	0.849	0.855	0.738
NCI-H1944	0.32	0.344	0.282	0.357	0.33	0.36	0.343	0.318	0.367	0.322	0.2	0.217	0.183	0.177	0.187	0.449	0.428	0.382	0.461	0.489
NCI-H322M	0.448	0.48	0.45	0.442	0.432	0.499	0.742	0.388	0.496	0.701	0.685	0.801	0.669	0.631	0.551	0.598	0.719	0.644	0.652	0.567
NCI-H1755	0.438	0.45	0.426	0.452	0.439	0.46	0.433	0.349	0.418	0.381	0.577	0.58	0.601	0.549	0.566	0.674	0.706	0.63	0.689	0.719
NCI-H1915	0.533	0.528	0.555	0.537	0.48	0.911	0.972	0.92	0.901	0.918	0.368	0.35	0.383	0.361	0.352	0.251	0.274	0.271	0.255	0.247
NCI-H2228	0.825	0.602	0.715	0.673	0.77	0.566	0.411	0.545	0.395	0.349	0.403	0.308	0.312	0.254	0.357	–	–	–	–	–
